Source: patent publication US5187074A, “Method of hydroxylation with ATCC 55086” (Merck & Co., Inc., priority 1992, dated 1993)

Target: T1, HIV protease (Human immunodeficiency virus type 1 group M subtype B, UniProt P12497)
T1 construct: HIV protease expressed in Escherichia coli; made in house; host or cells: Escherichia coli
Assay: Assay for Inhibition of Recombinant HIV Protease (APRIN 2.1)
Assay type: biochemical
Conditions: pH 5.5, 60 min, 37° C.
Method: Assay for Inhibition of Recombinant HIV Protease (APRIN 2.1)
Inhibition studies were performed on the reaction of the HIV protease expressed in Escherichia coli with a tritiated peptide substrate [^3 H]-acetyl-Val-Ser-Gln-Asn-(beta-napthyl-Ala)-Pro-Ile-Val-Gln-Gly-Arg-Arg-NH2 (MW 1800). The two arginine residues at the carboxyl terminus give this peptide an overall positive charge at acidic pH and enable it to bind to the H^+ form of DOWEX AG-50W-X8 resin and similar resins.
Aliquots of 25 μl containing 6.0-8.0 nM HIV protease in assay buffer (100 mM sodium acetate, pH 5.5 and 0.1% BSA) are placed in assay tubes. The reaction is initiated by addition of 25 μl aliquots of 4.2 μM tritiated peptide substrate in 100 mM sodium acetate, pH 5.5. After incubation for 60 min at 37° C., the reaction is stopped with 100 μl of 5% H3 PO4, then analysed by application of column chromatography.

SMILES | inhibition at 0.000625 µg/mL (0.625 ng/ml, control) [%] | inhibition at 0.00125 µg/mL (1.25 ng/ml, control) [%] | inhibition at 0.0025 µg/mL (2.5 ng/ml, control) [%] | inhibition at 0.005 µg/mL (5 ng/ml, control) [%] | inhibition at 0.01 µg/mL (10 ng/ml, control) [%] | inhibition at 0.0116 µg/mL (11.6 ng/ml, major metabolite from culture S-29-145, read-out: APRIN 2.1 Act. (% Inhib.)) [%]
CC(C)(C)OC(=O)N[C@@H](Cc1ccccc1)[C@@H](O)C[C@@H](Cc1ccc(OCCN2CCOCC2)cc1)C(=O)N[C@H]1c2ccccc2C[C@H]1O [L-689,502, N-(cis-2(R)-hydroxy-1(S) -indanyl)-5(S)-(1,1-dimethylethoxycarbonylamino)-4(S)-hydroxy-6-phenyl-2(R)-[(4-(2-(4-morpholinyl)ethoxy)phenyl)methyl]-hexanamide] | -2 | 21 | 54 | 69 | 86 | 
CC(C)(CO)OC(=O)N[C@@H](Cc1ccccc1)[C@@H](O)C[C@@H](Cc1ccc(OCCN2CCOCC2)cc1)C(=O)N[C@H]1c2ccccc2C[C@H]1O [L-697,811] |  |  |  |  |  | 92
